# Assays:
# Staphylococcus spp. = test: Antistaphylococcal activity, summary of broth microdilution MICs; format: cell-based
# [1] = test system: methicillin-resistant Staphylococcus aureus (MRSA); conditions: in vitro growth of MRSA; cited from earlier work
# [2] = test system: VAN-resistant S. aureus (VRSA); conditions: against VRSA; cited from earlier work
# MRSA COL = test: microbe, parasite or virus in culture; conditions: Staphylococcus aureus, 20 h
# Micrococcus luteus SK58 = test: microbe, parasite or virus in culture; format: cell-based
# [3] = range over staphylococcal strains of Table 1
# [4] = range over staphylococcal strains, converted from μM
Compound,"MIC range, antistaphylococcal activity (Staphylococcus spp.; [3])","MIC range, antistaphylococcal activity (Staphylococcus spp.; [4])",also measured
CCCCCCCSSC(=S)N(CC)CC [1i],2 to 4 µM,0.6 to 1.2 µg/mL,–
CCN(CC)C(=S)SSC(=S)N(CC)CC [disulfiram],–,–,minimum inhibitory concentration (MIC) range [1]: 4 to 32 µg/mL; interaction with vancomycin (VAN) [2]: synergism
CN[C@H](CC(C)C)C(=O)N[C@H]1C(=O)N[C@@H](CC(N)=O)C(=O)N[C@H]2C(=O)N[C@H]3C(=O)N[C@H](C(=O)N[C@H](C(=O)O)c4cc(O)cc(O)c4-c4cc3ccc4O)[C@H](O)c3ccc(c(Cl)c3)Oc3cc2cc(c3O[C@@H]2O[C@H](CO)[C@@H](O)[C@H](O)[C@H]2O[C@H]2C[C@](C)(N)[C@H](O)[C@H](C)O2)Oc2ccc(cc2Cl)[C@H]1O [vancomycin],–,–,MIC (MRSA COL): 2 µg/mL
"CCCCCCCCSSC(=S)N(CC)CC [1j, 1-[(diethylcarbamothioyl)disulfanyl]octane]",2 to 4 µM,0.6 to 1.2 µg/mL,MIC (Micrococcus luteus SK58): > 32 µM

# From article PMC5893419 (Bioorganic & medicinal chemistry letters, 2018)
